SMILES strings stand for the structures.

System in the first series: not listed separately
The series can be described thus: in vivo. Particulars: mouse, po. Here is the method: The toxicity of the new compounds according to the invention was determined on mice after oral administration. The chemical names of the reference compounds are as follows: […]
`CC(=O)Oc1ccccc1C(=O)O` [Acetylsalicylic acid, reference compound] had an LD50 of 1500 mg/kg.

The compound `CC(=O)N1c2ccccc2-n2cnnc2N1C(C)=O` [Example 1, 4,5-diacetyl-4,5-dihydro-s-triazolo-[3,4-c]benzo-as-triazine] gave an LD50 of 1100 mg/kg.

`CCC(=O)N1c2ccccc2-n2cnnc2N1C(=O)CC` [Example 3, 4,5-dipropionyl-4,5-dihydro-s-triazolo[3,4-c]benzo-as-triazine]: the LD50 worked out at 2000 mg/kg.

As to `CCC(=O)N1Nc2nncn2-c2ccccc21` [Example 4, 5-propionyl-4,5-dihydro-s-triazolo[3,4-c]benzo-as-triazine], the LD50 worked out at 1750 mg/kg.

Compound `CCC(=O)N1c2ccccc2-n2c(SC)nnc2N1C(=O)CC` [Example 5, 1-methylthio-4,5-dipropionyl-4,5-dihydro-s-triazolo[3,4-c]benzo-as-triazin] displayed an LD50 of 1000 mg/kg.

Turning to `CCCc1c(O)n2c3nncn3c3ccccc3n2c1=O` [Example 11, 1-oxo-3-hydroxy-2-n-propyl-pyrazolo[1,2-a]-s-triazolo-[3,4-c]benzo-as-triazine], the LD50 came out at 2000 mg/kg.

In turn, `CCCC(C)(COC(N)=O)COC(N)=O` [Meprobamate, 2-methyl-2-propyl-1,3-propanediol dicarbamate, reference compound] registered an LD50 of 1100 mg/kg.

In a further series the test system is acetic acid writhing. In words: analgesic effect, acetic acid writhing test on mice. Particulars: Mus musculus, po, read-out: ED50 (analgesic effect). The format is in vivo.
Method: The analgesic effect of the new compounds according to the invention was determined on mice by the acetic acid writhing test.
Regarding `CC(=O)Nc1ccc(O)cc1` [Paracetamol, N-(hydroxyphenyl)acetamide, reference compound], the ED50 was found to be 180 mg/kg.

Staying with this series, now noted: Mus musculus; mice, oral; acetic acid given 1 h after treatment, writhings counted within 5 minutes; read-out: ED50 (analgesic effect).
As to `CCC(=O)N1c2ccccc2-n2cnnc2N1C(=O)CC` [Example 3, 4,5-dipropionyl-4,5-dihydro-s-triazolo[3,4-c]benzo-as-triazine], the ED50 came to 200 mg/kg.

As for `CCC(=O)N1Nc2nncn2-c2ccccc21` [Example 4, 5-propionyl-4,5-dihydro-s-triazolo[3,4-c]benzo-as-triazine], the ED50 was determined as 175 mg/kg.

`CCC(=O)N1c2ccccc2-n2c(SC)nnc2N1C(=O)CC` [Example 5, 1-methylthio-4,5-dipropionyl-4,5-dihydro-s-triazolo[3,4-c]benzo-as-triazin]: the ED50 was determined as 100 mg/kg.

Staying with this series, now noted: mice, oral; writhing test.
As to `CCC(=O)N1c2ccccc2-n2cnnc2N1C(=O)CC` [Example 3, 4,5-dipropionyl-4,5-dihydro-s-triazolo[3,4-c]benzo-as-triazine], the “Therapeutical index (analgesic effect)” value was determined as 10.

In the case of `CCC(=O)N1Nc2nncn2-c2ccccc21` [Example 4, 5-propionyl-4,5-dihydro-s-triazolo[3,4-c]benzo-as-triazine], the “Therapeutical index (analgesic effect)” value was determined as 10.

With `CCC(=O)N1c2ccccc2-n2c(SC)nnc2N1C(=O)CC` [Example 5, 1-methylthio-4,5-dipropionyl-4,5-dihydro-s-triazolo[3,4-c]benzo-as-triazin], the “Therapeutical index (analgesic effect)” value was determined as 10.

A further series deals with carrageenin-provoked paw oedema. The series can be described thus: antiphlogistic (oedema-inhibiting) effect, carrageenin paw oedema on rats. The format is in vivo. Particulars: Rattus norvegicus, 3 h, read-out: ED30 (antiphlogistic effect). As to the method: The antiphlogistic (oedema-inhibiting) effect was tested on rats. 0.1 ml of a 1% carrageenin solution were injected into the plantar region of one of the hind paws. The volume of the paw was measured just before and 3 hours after the introduction of the oedema-provoking agent by a mercury plethysmometer.
Regarding `CC(=O)Oc1ccccc1C(=O)O` [Acetylsalicylic acid, reference compound], the ED30 turned out to be 180 mg/kg.

Still in this series, the particulars now being: Rattus norvegicus; rats; dosage inhibiting inflammation by 30%; 3 hours after carrageenin; read-out: ED30 (antiphlogistic effect).
Turning to `CC(=O)N1c2ccccc2-n2cnnc2N1C(C)=O` [Example 1, 4,5-diacetyl-4,5-dihydro-s-triazolo-[3,4-c]benzo-as-triazine], the ED30 is 110 mg/kg.

Take `CCC(=O)N1Nc2nncn2-c2ccccc21` [Example 4, 5-propionyl-4,5-dihydro-s-triazolo[3,4-c]benzo-as-triazine]: the ED30 was 22 mg/kg.

In the case of `CCCCC1C(=O)N(c2ccccc2)N(c2ccccc2)C1=O` [Phenylbutazone, 4-butyl-1,2-diphenyl-3,5-pyrazolidinedione, reference compound], the ED30 was 90 mg/kg.

Still in this series, the particulars now being: rats; carrageenin paw oedema.
As for `CC(=O)Oc1ccccc1C(=O)O` [Acetylsalicylic acid, reference compound], the “Therapeutical index (antiphlogistic effect)” value is 8.33.

With `CC(=O)N1c2ccccc2-n2cnnc2N1C(C)=O` [Example 1, 4,5-diacetyl-4,5-dihydro-s-triazolo-[3,4-c]benzo-as-triazine], the “Therapeutical index (antiphlogistic effect)” value was found to be 10.

Take `CCC(=O)N1Nc2nncn2-c2ccccc21` [Example 4, 5-propionyl-4,5-dihydro-s-triazolo[3,4-c]benzo-as-triazine]: the “Therapeutical index (antiphlogistic effect)” value stood at 79.55.

A further series concerns narcosis. In words: narcosis potentiating effect on mice, method of Kaergaard. The format is in vivo. Particulars: Mus musculus, read-out: ED50 (narcosis potentiating effect). Here is the method: The narcosis potentiating effect was determined on mice by the method of Kaergaard (Arch. Int. Pharmacodyn. 2, 170/1967/).
On to `CCCC(C)(COC(N)=O)COC(N)=O` [Meprobamate, 2-methyl-2-propyl-1,3-propanediol dicarbamate, reference compound], for which the ED50 came to 260 mg/kg.

The same series, now with this note: Mus musculus; mice; method of Kaergaard; read-out: ED50 (narcosis potentiating effect).
With `CC(=O)N1c2ccccc2-n2cnnc2N1C(C)=O` [Example 1, 4,5-diacetyl-4,5-dihydro-s-triazolo-[3,4-c]benzo-as-triazine], the ED50 came to 75 mg/kg.

Take `CCC(=O)N1c2ccccc2-n2cnnc2N1C(=O)CC` [Example 3, 4,5-dipropionyl-4,5-dihydro-s-triazolo[3,4-c]benzo-as-triazine]: the ED50 was 80 mg/kg.

As for `CCC(=O)N1Nc2nncn2-c2ccccc21` [Example 4, 5-propionyl-4,5-dihydro-s-triazolo[3,4-c]benzo-as-triazine], the ED50 came out at 140 mg/kg.

In the case of `CCC(=O)N1c2ccccc2-n2c(SC)nnc2N1C(=O)CC` [Example 5, 1-methylthio-4,5-dipropionyl-4,5-dihydro-s-triazolo[3,4-c]benzo-as-triazin], the ED50 turned out to be 140 mg/kg.

Staying with this series, now noted: mice; method of Kaergaard.
With `CC(=O)N1c2ccccc2-n2cnnc2N1C(C)=O` [Example 1, 4,5-diacetyl-4,5-dihydro-s-triazolo-[3,4-c]benzo-as-triazine], the “Therapeutical index (narcosis potentiating effect)” value is recorded as 15.

Take `CCC(=O)N1c2ccccc2-n2cnnc2N1C(=O)CC` [Example 3, 4,5-dipropionyl-4,5-dihydro-s-triazolo[3,4-c]benzo-as-triazine]: the “Therapeutical index (narcosis potentiating effect)” value is given as 25.

For the compound `CCC(=O)N1Nc2nncn2-c2ccccc21` [Example 4, 5-propionyl-4,5-dihydro-s-triazolo[3,4-c]benzo-as-triazine], the “Therapeutical index (narcosis potentiating effect)” value is 13.

For `CCC(=O)N1c2ccccc2-n2c(SC)nnc2N1C(=O)CC` [Example 5, 1-methylthio-4,5-dipropionyl-4,5-dihydro-s-triazolo[3,4-c]benzo-as-triazin], the “Therapeutical index (narcosis potentiating effect)” value was 7.

For the compound `CCCC(C)(COC(N)=O)COC(N)=O` [Meprobamate, 2-methyl-2-propyl-1,3-propanediol dicarbamate, reference compound], the “Therapeutical index (narcosis potentiating effect)” value is listed as 4.2.

The values are drawn from patent publication US4316022A, “Benzo-as-triazine derivatives” (priority 1979, dated 1982).
